Measured values reported in paper PMC10824489 (Journal of medicinal chemistry, 2023).
Entries after “also recorded” stand apart in the source; their conditions may differ.

Assays:
RPE65 [1] = target: RPE65 (Bos taurus, UniProt Q28175); experiment: RPE65 activity assay in vitro; assay type: biochemical, bovine; details: for inhibition of RPE65 in vitro: concentration range 0.1-50 μM
RPE65 [2] = target: T1, RPE65 (Mus musculus, UniProt Q91ZQ5); details: 10 mg/kg IP; for RPE65 inhibition in vivo (in words): BALB/cJ mice; for 11cRAL level in eye / RE level in eye: four hours of dark adaptation after light exposure, mean ± SD, n=3
T1 sequence (Q91ZQ5 1-533): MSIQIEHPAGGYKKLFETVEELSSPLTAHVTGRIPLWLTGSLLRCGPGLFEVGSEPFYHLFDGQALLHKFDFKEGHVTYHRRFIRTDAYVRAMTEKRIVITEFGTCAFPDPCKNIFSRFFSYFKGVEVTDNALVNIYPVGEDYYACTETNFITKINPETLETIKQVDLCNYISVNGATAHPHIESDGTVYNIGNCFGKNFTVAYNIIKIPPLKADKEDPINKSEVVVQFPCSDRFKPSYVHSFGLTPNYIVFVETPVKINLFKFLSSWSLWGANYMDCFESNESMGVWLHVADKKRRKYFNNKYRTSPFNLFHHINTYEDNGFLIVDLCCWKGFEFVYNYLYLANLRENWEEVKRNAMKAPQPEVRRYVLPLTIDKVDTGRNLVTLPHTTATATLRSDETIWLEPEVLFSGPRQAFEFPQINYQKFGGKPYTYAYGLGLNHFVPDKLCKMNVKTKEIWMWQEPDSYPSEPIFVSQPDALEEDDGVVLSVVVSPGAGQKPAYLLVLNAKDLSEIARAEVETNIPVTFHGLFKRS

VAP-1 = target: T2, VAP-1 (Mus musculus, UniProt O70423); experiment: VAP-1 oxidation assay in mouse aorta homogenates; details: for Concentration of 16e in mouse aorta homogenates: substrate 16e 100 μM
T2 sequence (O70423 1-765): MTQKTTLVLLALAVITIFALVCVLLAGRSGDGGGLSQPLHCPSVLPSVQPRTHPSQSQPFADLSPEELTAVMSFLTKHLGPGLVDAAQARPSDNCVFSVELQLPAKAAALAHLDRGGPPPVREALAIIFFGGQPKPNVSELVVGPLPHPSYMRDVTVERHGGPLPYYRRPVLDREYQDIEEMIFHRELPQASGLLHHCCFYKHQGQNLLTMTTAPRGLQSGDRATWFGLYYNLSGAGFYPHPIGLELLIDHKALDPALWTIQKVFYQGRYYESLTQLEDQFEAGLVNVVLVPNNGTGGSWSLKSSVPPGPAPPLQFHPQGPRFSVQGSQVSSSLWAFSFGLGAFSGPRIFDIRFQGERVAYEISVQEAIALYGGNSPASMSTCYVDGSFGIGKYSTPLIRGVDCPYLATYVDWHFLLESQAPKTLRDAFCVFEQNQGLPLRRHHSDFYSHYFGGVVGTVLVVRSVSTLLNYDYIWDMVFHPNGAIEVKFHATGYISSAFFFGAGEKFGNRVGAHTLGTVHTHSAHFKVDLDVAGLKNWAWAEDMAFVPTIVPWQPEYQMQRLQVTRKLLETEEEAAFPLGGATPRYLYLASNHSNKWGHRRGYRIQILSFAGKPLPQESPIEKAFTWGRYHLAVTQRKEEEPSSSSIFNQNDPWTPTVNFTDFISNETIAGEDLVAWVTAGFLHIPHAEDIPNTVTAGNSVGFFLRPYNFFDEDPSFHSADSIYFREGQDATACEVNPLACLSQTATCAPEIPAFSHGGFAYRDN

in vivo = details: C57BL/6J, mouse, serum, intraperitoneal, 10 mg/kg
CYP-450 enzymes = experiment: Liver microsomes assay

Chain of RPE65 (Bos taurus, UniProt Q28175) (Q28175 whole entry): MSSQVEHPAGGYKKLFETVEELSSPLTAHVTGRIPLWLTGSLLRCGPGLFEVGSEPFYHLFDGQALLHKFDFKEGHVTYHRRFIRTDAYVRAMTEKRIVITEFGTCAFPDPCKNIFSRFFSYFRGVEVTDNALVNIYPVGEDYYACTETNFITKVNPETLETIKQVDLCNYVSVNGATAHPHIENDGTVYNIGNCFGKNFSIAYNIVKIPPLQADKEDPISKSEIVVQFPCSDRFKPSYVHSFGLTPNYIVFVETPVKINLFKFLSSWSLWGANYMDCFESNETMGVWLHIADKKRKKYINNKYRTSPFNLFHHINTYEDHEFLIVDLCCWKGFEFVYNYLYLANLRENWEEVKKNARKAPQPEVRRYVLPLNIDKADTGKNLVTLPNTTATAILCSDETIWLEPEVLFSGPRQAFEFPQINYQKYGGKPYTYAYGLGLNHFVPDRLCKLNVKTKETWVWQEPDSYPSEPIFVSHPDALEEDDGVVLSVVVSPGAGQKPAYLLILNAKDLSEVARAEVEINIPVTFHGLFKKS

In the case of `NC(CCO)c1cccc(OCC2CCCCC2)c1` (stereo not shown) [6a, 3-Amino-3-(3-(cyclohexylmethoxy)phenyl)propan-1-ol], the “inhibition of RPE65 in vitro” value (RPE65 [1]) is reported as “lack of inhibitory activity; also recorded: no inhibition”.

For `NC(CO)Cc1cccc(OCC2CCCCC2)c1` (stereo not shown) [6b, 2-Amino-3-(3-(cyclohexylmethoxy)phenyl)propan-1-ol], the “inhibition of RPE65 in vitro” value (RPE65 [1]) was “no inhibition”.

For `NC(CO)Cc1ccc(OCC2CCCCC2)cc1` (stereo not shown) [6c, 2-Amino-3-(4-(cyclohexylmethoxy)phenyl)propan-1-ol], the “inhibition of RPE65 in vitro” value (RPE65 [1]) was “lack of dose-response relationship”.

In the case of `NCCc1cccc(OCC2CCCCC2)c1` [11b, 2-(3-(Cyclohexylmethoxy)phenyl)ethan-1-amine], the “potency towards RPE65 relative to amine 11a” value (RPE65 [1]; ratio of IC50 values) is reported as 7.6 times and the “RPE65 inhibition in vivo (in words)” value (RPE65 [2]) is reported as “did not display hallmarks of inhibited RPE65 activity”.

For `CC(CCN)c1cccc(OCC2CCCCC2)c1` (stereo not shown) [16b, 3-(3-(Cyclohexylmethoxy)phenyl)butan-1-amine], the “RPE65 inhibition in vivo (in words)” value (RPE65 [2]) was “minor RPE65 inhibition”, the non-specific toxicity observation (RPE65 [2]; all animals, even 24 hours after treatment) was “impaired body movement” and the “11cRAL level in eye” value (RPE65 [2]) was 253.5 ± 9.0 pmol/eye. For the same compound, the “RE level in eye” value (RPE65 [2]) was 85.6 ± 12.7 pmol/eye.

For `CC(CN)Cc1cccc(OCC2CCCCC2)c1` (stereo not shown) [16c, (3-(Cyclohexylmethoxy)phenyl)-2-methylpropan-1-amine], the “RPE65 inhibition in vivo (in words)” value (RPE65 [2]) was “minor RPE65 inhibition”, the “11cRAL level in eye” value (RPE65 [2]) was 370.5 ± 9.1 pmol/eye and the “RE level in eye” value (RPE65 [2]) was 123.9 ± 36.4 pmol/eye.

In the case of `CNCCC(O)c1cccc(OCC2CCCCC2)c1` (stereo not shown) [16e, 1-(3-(Cyclohexylmethoxy)phenyl)-3-(methylamino)propan-1-ol], the “Concentration of 16e in mouse aorta homogenates” value (VAP-1; time 0) is reported as 100.32 ± 0.95 µM, the “Concentration of 16e in mouse aorta homogenates” value (VAP-1; time 1) is reported as 101.20 ± 0.89 µM and the concentration at 24 h (in vivo) is reported as 0 nM. The “hepatic clearance relative to 3a” value (CYP-450 enzymes; Cint ratio) was 5.5 times, the “rate of liver metabolism relative to 3a” value (CYP-450 enzymes; Vmax ratio) was 1.7 times and the “demethylation to 3a in liver microsomes” value (CYP-450 enzymes; one-hour exposure, 200 μM) was “minor amount of demethylation”. For the same compound, the “11cRAL per eye as % of the dark adapted (DA) level” value (RPE65 [2]; 24 hours post treatment) was 53% and the “RPE65 inhibition in vivo (in words)” value (RPE65 [2]) was “potent RPE65 inhibition”.

In the case of `O=CC=Cc1cccc(OCC2CCCCC2)c1` [ACU-5201], the “Concentration of deaminated product ACU-5201 in mouse aorta homogenates” value (VAP-1; formed from substrate 3a, time 0) is reported as 0.00 ± 0.00 µM, the “Concentration of deaminated product ACU-5201 in mouse aorta homogenates” value (VAP-1; formed from substrate 3a, time 1) is reported as 19.71 ± 0.29 µM and the “Concentration of deaminated product ACU-5201 in mouse aorta homogenates” value (VAP-1; formed from substrate 3a, time 4) is reported as 54.81 ± 6.38 µM. The “Concentration of deaminated product ACU-5201 in mouse aorta homogenates” value (VAP-1; formed from substrate 16e, time 1) was 0.48 ± 0.68 µM and the “Concentration of deaminated product ACU-5201 in mouse aorta homogenates” value (VAP-1; formed from substrate 16e, time 4) was 3.76 ± 0.29 µM.
